In patent publication US20090274778A1 (priority 2004, published 2009):

Assays:
[1] = biological target: T1, COX-1 enzyme (ovine) (Ovis aries, UniProt P05979); assay: COX-1 enzyme inhibition (COX-1 synthesis of PGE2); assay type: biochemical
T1 construct: purchased Cayman Chemical 60100
T1 sequence (P05979 25-600): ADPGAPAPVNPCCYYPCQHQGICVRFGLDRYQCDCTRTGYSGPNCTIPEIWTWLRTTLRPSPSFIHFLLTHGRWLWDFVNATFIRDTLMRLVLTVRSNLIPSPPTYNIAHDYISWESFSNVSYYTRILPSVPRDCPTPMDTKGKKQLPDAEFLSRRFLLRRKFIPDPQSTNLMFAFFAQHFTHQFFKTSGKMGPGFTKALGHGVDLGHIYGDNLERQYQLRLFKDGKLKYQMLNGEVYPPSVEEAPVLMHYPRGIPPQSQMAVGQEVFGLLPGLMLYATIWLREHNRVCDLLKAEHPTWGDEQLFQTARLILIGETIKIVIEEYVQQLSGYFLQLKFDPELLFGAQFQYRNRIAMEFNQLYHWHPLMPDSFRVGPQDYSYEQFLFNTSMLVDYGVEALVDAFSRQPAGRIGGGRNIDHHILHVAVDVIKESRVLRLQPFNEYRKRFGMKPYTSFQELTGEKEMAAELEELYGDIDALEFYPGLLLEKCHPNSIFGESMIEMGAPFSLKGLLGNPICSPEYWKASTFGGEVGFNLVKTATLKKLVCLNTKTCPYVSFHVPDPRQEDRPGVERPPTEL
Method: Determination of COX-1 Enzyme Inhibition by Hops Extract—The ability of a test material to inhibit COX-1 synthesis of PGE2 was determined essentially as described by Noreen, Y., et al. (J. Nat. Prod. 61, 2-7, 1998). […]

[2] = biological target: T2, COX-2 (Homo sapiens, UniProt P35354); details: specificity for COX-2 over COX-1, background statement; cited from earlier work
T2 sequence (P35354 18-604): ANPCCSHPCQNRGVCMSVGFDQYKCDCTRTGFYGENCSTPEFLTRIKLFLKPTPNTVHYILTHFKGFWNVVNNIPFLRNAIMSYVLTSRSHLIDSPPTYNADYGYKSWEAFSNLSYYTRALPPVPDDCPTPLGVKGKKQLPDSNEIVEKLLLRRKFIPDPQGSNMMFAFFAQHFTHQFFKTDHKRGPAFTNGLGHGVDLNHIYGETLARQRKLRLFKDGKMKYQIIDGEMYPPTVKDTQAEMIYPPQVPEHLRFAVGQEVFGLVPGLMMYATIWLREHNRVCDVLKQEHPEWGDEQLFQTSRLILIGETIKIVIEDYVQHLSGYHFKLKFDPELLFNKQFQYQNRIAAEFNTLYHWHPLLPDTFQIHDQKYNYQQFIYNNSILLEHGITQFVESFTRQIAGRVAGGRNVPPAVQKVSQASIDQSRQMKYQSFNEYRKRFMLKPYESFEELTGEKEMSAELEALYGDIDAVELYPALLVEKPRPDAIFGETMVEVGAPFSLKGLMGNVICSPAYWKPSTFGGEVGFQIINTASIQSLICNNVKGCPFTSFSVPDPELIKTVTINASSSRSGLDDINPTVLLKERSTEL

Row | Compound | IC50 [1] [µM] | reported COX-2 specificity [2]
1 | COc1cc(/C=C/C(=O)CC(=O)/C=C/c2ccc(O)c(OC)c2)ccc1O [curcumin] | 27.1 | 
2 | CC(=O)Oc1ccccc1C(=O)O [aspirin] |  | 0.6
